Experimental data as given in paper PMC8557901 (Microbiology Spectrum, 2021).

Legend:
Plasmodium berghei = tested on: Plasmodium berghei; parameters: method as in PMID 25791675; conditions: 2.5 mg/kg twice a day for 3 days; untreated group 9%; cited from earlier work
[1] = tested on: P. falciparum F32-ART5 quiescent parasites; assay: Quiescent-stage survival assay (QSA); format: cell-based, Plasmodium falciparum; conditions: artemisinin 3 μM 6 h then artemisinin + CQ 200 nM versus artemisinin alone
Experimental: (§1) The Plasmodium falciparum artemisinin-resistant strain F32-ART5 and its twin artemisinin-sensitive line F32-TEM ([30], [31]) were cultivated at 37°C with 5% CO2 in human red blood cells (EFS [French Blood Bank]) diluted to 2% hematocrit in RPMI 1640 medium supplemented with 5% human serum (EFS) as previously reported ([47]).
Chemosensitivity evaluation of artemisinin-resistant parasites at the quiescent stage was performed on the F32-ART5 strain using the quiescent-stage survival assay (QSA) ([33]). D-Sorbitol-synchronized ring-stage parasites at 3% parasitemia (2% hematocrit) were first exposed to 3 μM artemisinin for 6 h to induce quiescence of artemisinin-resistant parasites. Then, quiescent parasites were exposed or not (as a control condition) to 2.5 μM M1 for 24 h. After drug exposure, parasite cultures were washed with RPMI 1640 medium and replaced in normal drug-free culture conditions. The time to parasite recrudescence was determined as the time required to reach initial parasitemia. […] In each experiment, results obtained with the condition “artemisinin 3 μM 6 h/artemisinin 3 μM 24 h” were compared to those obtained with the condition “artemisinin 3 μM 6 h/(artemisinin 3 μM + M1 2.5 μM) 24 h” in order to determine the delay in recrudescence time. […] Each experiment was carried out three times independently, and data statistically analyzed. […]

[2] = tested on: P. falciparum strain K1 in RBC; assay: In vitro chemosensitivity assay, blood stage P. falciparum K1 (SYBR green I); format: cell-based; conditions: Plasmodium falciparum, K1, 72 h, read-out: EC50 (μM) for P. falciparum strain K1 in RBC
Experimental: Maintenance in continuous culture was done as described previously by Trager and Jensen ([46]). Cultures were maintained in fresh A+ human erythrocytes (EFS [French Blood Bank]) at 2.5% hematocrit in complete medium (RPMI 1640 with 25 mM HEPES, 25 mM NaHCO3, 10% A+ human serum) at 37°C under a reduced-O2 atmosphere (gas mixture of 10% O2, 5% CO2, and 85% N2). Parasitemia was maintained daily between 1% and 3%. The P. falciparum drug susceptibility test was carried out by comparing quantities of DNA in treated and control cultures of parasites in human erythrocytes according to a SYBR green I fluorescence-based method ([50]) using a 96-well fluorescence plate reader. Compounds, previously dissolved in DMSO (final concentration, less than 0.5% vol/vol), were incubated in a total assay volume of 200 μl of synchronized culture suspension (2% hematocrit and 0.4% parasitemia) for 72 h in a humidified atmosphere (85% N2, 10% O2, and 5% CO2) at 37°C in 96-well flat-bottom plates. Duplicate assays were performed for each sample. After incubation, plates were frozen at −20°C for 24 h. Then, the frozen plates were thawed for 1 h at 37°C. Fifteen microliters of each sample was transferred to 96-well flat-bottom black plates (Greiner Bio-one) already containing 15 μl of the SYBR green I lysis buffer (2× SYBR green I, 20 mM Tris base, pH 7.5, 20 mM EDTA, 0.008% [wt/vol] saponin, 0.08% [wt/vol] Triton X-100). […] Plates were incubated for 15 min at 37°C and then read on a Tecan Infinite F-200 spectrophotometer with excitation and emission wavelengths at 485 and 535 nm, respectively. […] EC50K1 values represent the mean values calculated from three independent experiments.

[3] = tested on: P. falciparum F32-TEM (artemisinin-sensitive); assay: Standard in vitro chemosensitivity assay (hypoxanthine uptake), F32-TEM; format: cell-based; conditions: Plasmodium falciparum, F32, 48 h, read-out: Mean EC50 ± SD
Experimental: as §1
(§2) In vitro susceptibility of P. falciparum parasites was determined by using the standard hypoxanthine uptake inhibition assay as described previously ([51]) with some modifications ([52]). After D-sorbitol treatment, parasites synchronized at the ring stage were exposed for 48 h, with [^3H]hypoxanthine (Perkin Elmer, France), to a range of concentrations of the different tested compounds. […] Each result represents 3 independent experiments.

[4] = tested on: P. falciparum F32-ART5 (artemisinin-resistant); assay: Standard in vitro chemosensitivity assay (hypoxanthine uptake), F32-ART5; format: cell-based; conditions: Plasmodium falciparum, F32, 48 h, read-out: Mean EC50 ± SD
Experimental: as §1, §2

[5] = tested on: P. falciparum F32-ART5 and F32-TEM; assay: Recrudescence assay F32-ART5 versus F32-TEM; format: cell-based, Plasmodium falciparum; conditions: 48 h drug exposure; M1 2.5 and 10 μM; artemisinin 18 μM
Experimental: as §1
A recrudescence assay was performed to evaluate the ability of the F32-ART5 parasite line to survive drug exposure in comparison to that of the F32-TEM parasite line ([30], [31]) in order to evaluate the risk of cross-resistance between artemisinin and M1. D-Sorbitol-synchronized ring-stage parasites at 3% parasitemia (2% hematocrit) were exposed to the drug for 48 h. After drug exposure, parasite cultures were washed with RPMI 1640 medium and replaced in normal drug-free culture conditions. The time to parasite recrudescence was determined as the time required to reach initial parasitemia. […] Each experiment, performed in parallel for F32-ART5 and F32-TEM cultivated under the same conditions to generate paired results, was carried out at least three times independently and data statistically analyzed.
A statistical analysis (log-rank test) was carried out on data from the recrudescence assay and the QSA using a Kaplan-Meier survival analysis considering censored data. The final event was defined as the time necessary for cultures to reach initial parasitemia. […]

| Structure (SMILES) | parasitemia at day 4 (Plasmodium berghei) [%] | difference in recrudescence times versus artemisinin alone [1] | EC50 [2] [µM] | EC50 [3] [nM] | EC50 [4] [nM] | recrudescence of F32-ART5 versus F32-TEM (cross-resistance with artemisinin) [5] |
| --- | --- | --- | --- | --- | --- | --- |
| CCN(CC)CCCC(C)Nc1ccnc2cc(Cl)ccc12 (stereo not drawn) [Chloroquine, reference compound] | 1.5 | no difference in the recrudescence times | 0.8 |  |  |  |
| C[C@@H]1CC[C@H]2[C@@H](C)C(=O)O[C@@H]3O[C@@]4(C)CC[C@@H]1[C@]32OO4 [Artemisinin, reference compound] |  |  |  | 11.1 ± 1.6 | 11 ± 0.5 | faster recrudescence for F32-ART5 than for F32-TEM |
